Data set [1] is described as follows: Dissolving compounds for 10 mM stock solutions. The note with it: molecusol, acetic acid, propylene glycol, then hot water. The class given is physicochemical. The method, then:
Following assay establishment, the test compounds were tested for binding affinities. The concentrations selected for the experiments were chosen according to what was found for memantine in our assay. The first task was to dissolve the compounds and make up the 10 mM stock solution for further experiments. Those compounds that were made into salt format were easy to dissolve in deionized water, but the other compounds were difficult to bring into solution. Several “assay friendly” solvents have been tried, such as molecusol, acetic acid and propylene glycol followed by putting the vial into hot water.

Data set [2] has as its system NMDA receptor. The data set is described as follows: Whole-cell voltage-clamp recording of NMDA evoked currents in hypocretin neurons of hypothalamic slices. The class given is cell-based, mouse. The note with it: washout of the compound.
Data set [3] relates to NMDA receptor. The data set is described as follows: [3H]MK-801 binding assay, NMDA receptors in guinea pig brain membranes. The note with it: for Relative affinity: compared to that of Memantine. The method, then:
Hartley guinea pigs were sacrificed, and their brains were quickly removed and weighed. The brains then were homogenized in 50 mM Tris HCl buffer, pH 7.7, using a Polytron homogenizer. The homogenate was centrifuged at 40,000×g for 15 min, rehomogenized, and centrifuged again. The final pellet was resuspended in Tris-HCl, pH 7.7, at a final concentration of 6.67 mg original wet weight of tissue/ml. […] The samples were then filtered through glass fiber filters on a Tomtec cell harvester. The filters were washed 3 times with 3 ml of cold buffer. Filters were dried overnight and counted next day on a Wallac Betaplate Reader.
The binding experiments were conducted as follows. […] For each compound, graphs were prepared containing individual competition curves obtained for that compound. IC50 values and Hill coefficients were calculated using the program Prism. Ki values were calculated using the Chang Prusoff transformation: Ki═IC50/(1+L/Kd)
where L is radioligand concentration and Kd is the binding affinity of the radioligand, as determined previously by saturation analysis. […] In each experiment, one standard compound was simultaneously run on each 96 well plate.

What is called Ki is the dissociation constant of the complex between target and ligand, obtained from inhibition or displacement.

With `O=C(O)C12CC3C4CC5(C(=O)O)CC3C(C1)C(C5)C4C2` [MDT-20, 4,9-diamantane dicarboxylic acid], the “solubility in assay friendly solvents” value in data set [1] was “did not go into solution, or came out with time”. Turning to `OC12CC3C4CC5(O)CC3C(C1)C(C5)C4C2` [MDT-14, 4,9-dihydroxydiamantane], the “solubility in assay friendly solvents” value in data set [1] is “went into solution”. For `CC12CC3CC4C1CC1CC4[C@](N)(C3)C2C1` [MDT-22, 1-methyl-7-aminodiamantane], the “reversibility of inhibition of NMDA evoked currents upon washout” value in the data set with NMDA receptor [2] is reported as “reversible”.

Turning to `OC12CC3C4CC5C6CC7(O)CC5C(C4C1)C(C2)(C7)C36` [MDT-15, 9,15-dihydroxytriamantane], the “solubility in assay friendly solvents” value in data set [1] was “went into solution”.

As to `O=C(O)C12CC3CC4C1CC1CC2C(C3)C4(C(=O)O)C1` [MDT-19, 1,6-diamantane dicarboxylic acid], the “solubility in assay friendly solvents” value in data set [1] was “did not go into solution, or came out with time”. In the data set on NMDA receptor [3], the Relative affinity stood at 0.091. `NC12CC3CC4C5CC(CC41)CC2C5C3` [MDT-2, 1-aminodiamantane] showed a Relative affinity with NMDA receptor [3] of 0.094. On to `OC12CC3CC4C5CC(CC41)CC2C5C3` [MDT-10, 1-hydroxydiamantane], for which the “solubility in assay friendly solvents” value in data set [1] was “went into solution”. The molecule further came in with a Relative affinity in the data set with NMDA receptor [3] of 0.015. Turning to `NC12CC3C4CC5CC3C(C1)C(C5)C4C2` [MDT-3, 4-aminodiamantane], in the data set on NMDA receptor [3], the Relative affinity is reported as 0.017.

On to `OC12CC3C4CC5CC3C(C1)C(C5)C4C2` [MDT-11, 4-diamantanol], for which the “solubility in assay friendly solvents” value in data set [1] was “went into solution”.

In the data set on NMDA receptor [3], `NC12CC3C4CC5(N)CC3C(C1)C(C5)C4C2` [MDT-5, 4,9-diaminodiamantane] yielded a Relative affinity of 0.002. On the same count and under the same terms, the figure for `NC12CC3CC4C1CC1CC2C(C3)C4(N)C1` [MDT-4, 1,6-diaminodiamantane] is 0.006. In the case of `CC12CC3CC4C1CC1CC2C(N)(C3)C4(C)C1` (stereo not drawn) [MDT-23, 1,6-dimethyl-2-aminodiamantane], the “reversibility of inhibition of NMDA evoked currents upon washout” value in the data set with NMDA receptor [2] is listed as “not reversible”. Turning to `OC12CC3CC4C1CC1CC4C(O)(C3)C2C1` [MDT-13, 1,7-dihydroxydiamantane], the “solubility in assay friendly solvents” value in data set [1] was “went into solution”. With `O=C(O)C12CC3CC4C5CC(CC41)CC2C5C3` [MDT-17, 1-diamantane carboxylic acid], the “solubility in assay friendly solvents” value in data set [1] is listed as “did not go into solution, or came out with time”. The molecule also had a Relative affinity in the data set on NMDA receptor [3] of 0.063. In the case of `OC12CC3CC4C1CC1CC2C(C3)C4(O)C1` [MDT-12, 1,6-dihydroxydiamantane], the “solubility in assay friendly solvents” value in data set [1] is given as “went into solution”. In the data set on NMDA receptor [3], this molecule displayed a Relative affinity of 0.077.

As for `CC12CC3CC(C)(C1)CC(N)(C3)C2` [Memantine, 1-amino-3,5-dimethyladamantane, reference compound], at NMDA receptor [3] ([3H]MK-801 1 nM, guinea pig brain membranes, read-out: Ki at the NMDA site (standard compounds)), the Ki is 602 ± 27 nM. The molecule further showed a Relative affinity with NMDA receptor [3] of 1.
